# Values joined by “and” are separate entries in the source; they are usually repeats but may differ in a detail not shown here. Identical values can stand only once. Like-named read-outs stand apart in the source and are kept apart here.
# Tests used:
# PKMYT1 = target: T1, PKMYT1 (Homo sapiens, UniProt Q99640); experiment: KINOMEScan; format: binding; parameters: dose or concentration left out as unconfirmed
# T1 construct: purchased DiscoverX KINOMEscan
# CSNK1G2 = target: T2, CSNK1G2 (Homo sapiens, UniProt P78368); experiment: KINOMEScan; format: binding; parameters: dose or concentration left out as unconfirmed
# T2 construct: purchased DiscoverX KINOMEscan
# KIT N822K = KIT N822K (Homo sapiens, UniProt P10721, N822K); experiment: KIT auto-phosphorylation in transformed BaF3 cells
# LOK = target: T3, LOK (Homo sapiens, UniProt O94804); experiment: KINOMEScan; format: binding; parameters: dose or concentration left out as unconfirmed
# T3 construct: purchased DiscoverX KINOMEscan
# ULK3 = target: T4, ULK3 (Homo sapiens, UniProt Q6PHR2); experiment: KINOMEScan; format: binding; parameters: dose or concentration left out as unconfirmed
# T4 construct: purchased DiscoverX KINOMEscan
# CDK11 = target: T5, CDK11 (Homo sapiens, UniProt Q9BWU1); experiment: KINOMEScan; format: binding; parameters: dose or concentration left out as unconfirmed
# T5 construct: purchased DiscoverX KINOMEscan
# JNK1 = target: T6, JNK1 (Homo sapiens, UniProt P45983); experiment: KINOMEScan; format: binding; parameters: dose or concentration left out as unconfirmed
# T6 construct: purchased DiscoverX KINOMEscan
# ULK1 = target: T7, ULK1 (Homo sapiens, UniProt O75385); experiment: KINOMEScan; format: binding; parameters: dose or concentration left out as unconfirmed
# T7 construct: purchased DiscoverX KINOMEscan
# DCAMKL1 = target: T8, DCAMKL1 (Homo sapiens, UniProt O15075); experiment: KINOMEScan; format: binding; parameters: dose or concentration left out as unconfirmed
# T8 construct: purchased DiscoverX KINOMEscan
# BTK = target: T9, BTK (Homo sapiens, UniProt Q06187); experiment: KINOMEScan; format: binding; parameters: dose or concentration left out as unconfirmed
# T9 construct: purchased DiscoverX KINOMEscan
# MARK4 = target: T10, MARK4 (Homo sapiens, UniProt Q96L34); experiment: KINOMEScan; format: binding; parameters: dose or concentration left out as unconfirmed
# T10 construct: purchased DiscoverX KINOMEscan
# EGFR(T790M) = target: T11, EGFR(T790M) (Homo sapiens, UniProt P00533, T790M); experiment: KINOMEScan; format: binding
# T11 construct: purchased DiscoverX KINOMEscan
# EPHA5 = target: T12, EPHA5 (Homo sapiens, UniProt P54756); experiment: KINOMEScan; format: binding; parameters: dose or concentration left out as unconfirmed
# T12 construct: purchased DiscoverX KINOMEscan
# PIP5K1C = target: T13, PIP5K1C (Homo sapiens, UniProt O60331); experiment: KINOMEScan; format: binding; parameters: dose or concentration left out as unconfirmed
# T13 construct: purchased DiscoverX KINOMEscan
# KIT V559D [1] = target: T14, KIT V559D (Homo sapiens, UniProt P10721, V559D); experiment: ADP-Glo biochemical assay; parameters: Kit V559D encoding residues 545-976 with His tag; His tag; made in house; host or cells: SF9 insect cells (baculovirus)
# Target sequence in this assay (P10721 545-976 V559D): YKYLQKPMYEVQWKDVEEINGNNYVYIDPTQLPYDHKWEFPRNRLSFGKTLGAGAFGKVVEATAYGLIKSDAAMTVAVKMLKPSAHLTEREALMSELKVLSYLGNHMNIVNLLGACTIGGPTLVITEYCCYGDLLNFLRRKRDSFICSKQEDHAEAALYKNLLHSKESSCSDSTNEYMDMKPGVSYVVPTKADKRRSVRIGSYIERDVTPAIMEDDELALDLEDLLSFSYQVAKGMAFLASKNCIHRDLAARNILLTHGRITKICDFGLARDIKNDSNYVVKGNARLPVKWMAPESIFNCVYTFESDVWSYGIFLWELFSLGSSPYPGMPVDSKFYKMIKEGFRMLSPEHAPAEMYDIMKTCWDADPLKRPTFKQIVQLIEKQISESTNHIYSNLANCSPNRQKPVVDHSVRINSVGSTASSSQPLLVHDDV
# EGFR = target: T15, EGFR (Homo sapiens, UniProt P00533); experiment: KINOMEScan; format: binding; parameters: dose or concentration left out as unconfirmed
# T15 construct: purchased DiscoverX KINOMEscan
# BaF3 = experiment: Anti-proliferation assay, parental BaF3 cells; format: cell-based; conditions: Mus musculus, 72 hours, CellTiter-Glo
# Procedure: The KIT mutant isogenic BaF3 cells lines and Colo320DM cells were cultured in RPMI 1640 media (Corning, USA) with 10% fetal bovine serum (FBS) and supplemented with 2% L-glutamine 1% penicillin/streptomycin, the BaF3 cell line was cultured in RPMI 1640 media (Corning, USA) with 1% IL-3, 10% fetal bovine serum (FBS) and supplemented with 2% L-glutamine 1% penicillin/streptomycin. All cell lines were maintained in culture media at 37°C with 5% CO2.
# Cells were grown in 96-well culture plates (2500/well). The compounds of various concentrations were added into the plates. Cell proliferation was determined after treatment with compounds for 72 hours. Cell viability was measured using the CellTiter–Glo assay (Promega, USA), according to the manufacturer’s instructions, and luminescence was measured in a multi-label reader (Envision, PerkinElmer, USA). Data were normalized to control groups (DMSO) and represented by the mean of three independent measurements with standard error <20%. GI50 values were calculated using Prism 5.0 (GraphPad Software, San Diego, CA).
# KIT V559D [2] = target: T14, KIT V559D; experiment: KIT auto-phosphorylation in KIT V559D overexpressed Colo320DM cells; format: cell-based; parameters: expressed in transfected cells; host or cells: Colo320DM (transient)
# Text: In order to better define CHMFL-KIT-031’s inhibitory effect against KIT V559D mutant, we then tested it with purified KIT wt/V559D kinase protein by ADP-Glo assay (Figure 2A). […] We also transformed and overexpressed KIT V559D transiently into Colo320DM cells which express wt KIT kinase and tested CHMFL-KIT-031’s inhibitory effects for the auto-phosphorylation of KIT Y703, 719 and Y823 sites.
# KIT-V559D kinase domain coding sequence was inserted into a pMSCV puro vector (Clontech) that was modified by inserting a 3×FLAG sequence at the 3’ end of the multicloning sites. The vector was transiently transfected into Colo320DM cells with TransIN™EL transfection reagent.
# Target sequence in this assay (P10721 546-976 V559D limits assumed): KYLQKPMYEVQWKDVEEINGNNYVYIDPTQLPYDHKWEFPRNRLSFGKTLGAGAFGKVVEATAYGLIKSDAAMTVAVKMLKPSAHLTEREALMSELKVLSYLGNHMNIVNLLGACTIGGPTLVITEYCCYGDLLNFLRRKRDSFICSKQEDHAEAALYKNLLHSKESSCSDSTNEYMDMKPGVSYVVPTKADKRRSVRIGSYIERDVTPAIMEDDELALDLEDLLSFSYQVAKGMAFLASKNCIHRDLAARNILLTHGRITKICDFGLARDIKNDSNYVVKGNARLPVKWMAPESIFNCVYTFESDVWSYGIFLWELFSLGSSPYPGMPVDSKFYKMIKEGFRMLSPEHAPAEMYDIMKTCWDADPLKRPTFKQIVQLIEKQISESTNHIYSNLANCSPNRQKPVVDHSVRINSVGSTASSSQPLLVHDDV
# ITK = target: T16, ITK (Homo sapiens, UniProt Q08881); experiment: KINOMEScan; format: binding; parameters: dose or concentration left out as unconfirmed
# T16 construct: purchased DiscoverX KINOMEscan
# MET(Y1235D) = target: T17, MET(Y1235D) (Homo sapiens, UniProt P08581, Y1235D); experiment: KINOMEScan; format: binding; parameters: dose or concentration left out as unconfirmed
# T17 construct: purchased DiscoverX KINOMEscan
# KIT T670I = KIT T670I (Homo sapiens, UniProt P10721, T670I); experiment: KIT auto-phosphorylation in transformed BaF3 cells; conditions: 2h
# EGFR(E746-A750del) = target: T18, EGFR(E746-A750del) (Homo sapiens, UniProt P00533, DEL746-750); experiment: KINOMEScan; format: binding; conditions: Concentrations 1 mM
# T18 construct: purchased DiscoverX KINOMEscan
# KIT V559D [3] = target: T14, KIT V559D; experiment: KIT auto-phosphorylation in transformed BaF3 cells; conditions: 2h
# Target sequence in this assay (P10721 546-976 V559D): as the sequence (P10721 546-976 V559D limits assumed) above
# MLK3 = target: T19, MLK3 (Homo sapiens, UniProt Q16584); experiment: KINOMEScan; format: binding; parameters: dose or concentration left out as unconfirmed
# T19 construct: purchased DiscoverX KINOMEscan
# MET = target: T20, MET (Homo sapiens, UniProt P08581); experiment: KINOMEScan; format: binding; parameters: dose or concentration left out as unconfirmed
# T20 construct: purchased DiscoverX KINOMEscan
# [4] = target: T21, JAK1(JH2domain-pseudokinase) (Homo sapiens, UniProt P23458); experiment: KINOMEScan; format: binding; parameters: dose or concentration left out as unconfirmed
# T21 construct: JAK1(JH2domain-pseudokinase); purchased DiscoverX KINOMEscan
# FLT3(ITD) = experiment: KINOMEScan; format: binding; parameters: dose or concentration left out as unconfirmed
# [5] = EC50 pY703 auto-phosphorylation
# [6] = EC50 pY719 auto-phosphorylation
# [7] = EC50 pY823 auto-phosphorylation
# Chain of KIT N822K (P10721 26-976 N822K): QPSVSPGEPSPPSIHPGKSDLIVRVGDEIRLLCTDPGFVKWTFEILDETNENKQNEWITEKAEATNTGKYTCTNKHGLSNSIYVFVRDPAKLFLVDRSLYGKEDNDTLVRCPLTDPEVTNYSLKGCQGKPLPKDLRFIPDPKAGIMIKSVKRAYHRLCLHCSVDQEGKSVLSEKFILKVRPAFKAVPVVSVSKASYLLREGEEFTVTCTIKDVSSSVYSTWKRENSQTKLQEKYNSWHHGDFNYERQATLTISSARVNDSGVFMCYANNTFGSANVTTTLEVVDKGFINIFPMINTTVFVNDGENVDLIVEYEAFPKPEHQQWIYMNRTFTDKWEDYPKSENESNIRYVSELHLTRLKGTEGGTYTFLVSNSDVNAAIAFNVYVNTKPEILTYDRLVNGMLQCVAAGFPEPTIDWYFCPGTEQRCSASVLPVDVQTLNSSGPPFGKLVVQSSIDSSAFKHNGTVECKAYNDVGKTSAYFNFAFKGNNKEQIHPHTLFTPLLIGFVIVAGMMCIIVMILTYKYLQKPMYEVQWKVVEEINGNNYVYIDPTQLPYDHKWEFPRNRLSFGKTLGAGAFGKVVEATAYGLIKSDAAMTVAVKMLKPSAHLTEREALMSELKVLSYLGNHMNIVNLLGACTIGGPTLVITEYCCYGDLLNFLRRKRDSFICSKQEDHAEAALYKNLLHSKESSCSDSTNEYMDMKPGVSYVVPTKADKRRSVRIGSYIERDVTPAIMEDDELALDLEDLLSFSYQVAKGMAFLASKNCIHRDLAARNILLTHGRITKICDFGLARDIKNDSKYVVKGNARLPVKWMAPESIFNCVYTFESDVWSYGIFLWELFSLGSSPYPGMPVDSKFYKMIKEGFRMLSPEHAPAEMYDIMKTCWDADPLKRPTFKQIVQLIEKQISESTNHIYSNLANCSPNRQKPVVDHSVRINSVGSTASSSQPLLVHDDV
# Chain of KIT T670I (P10721 26-976 T670I): as the sequence (P10721 26-976 N822K) above, with T645I, K797N counted along it
# T9 sequence (Q06187 whole entry): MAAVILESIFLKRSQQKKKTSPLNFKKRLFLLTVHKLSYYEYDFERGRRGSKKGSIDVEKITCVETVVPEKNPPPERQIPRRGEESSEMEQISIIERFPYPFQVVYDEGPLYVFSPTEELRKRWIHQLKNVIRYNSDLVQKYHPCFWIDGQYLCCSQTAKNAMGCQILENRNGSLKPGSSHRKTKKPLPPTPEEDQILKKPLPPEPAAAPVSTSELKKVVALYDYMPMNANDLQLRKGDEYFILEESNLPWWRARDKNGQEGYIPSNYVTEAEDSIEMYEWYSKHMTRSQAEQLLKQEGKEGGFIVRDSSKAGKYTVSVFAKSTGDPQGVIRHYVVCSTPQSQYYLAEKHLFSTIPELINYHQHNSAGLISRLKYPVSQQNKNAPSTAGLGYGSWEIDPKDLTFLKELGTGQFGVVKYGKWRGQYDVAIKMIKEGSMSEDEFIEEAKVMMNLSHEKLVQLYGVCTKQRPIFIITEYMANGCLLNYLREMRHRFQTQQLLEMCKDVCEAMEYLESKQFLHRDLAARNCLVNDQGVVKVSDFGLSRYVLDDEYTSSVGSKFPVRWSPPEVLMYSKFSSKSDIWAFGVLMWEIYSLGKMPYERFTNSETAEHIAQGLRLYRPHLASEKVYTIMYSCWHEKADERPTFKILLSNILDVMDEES
# T8 sequence (O15075 whole entry): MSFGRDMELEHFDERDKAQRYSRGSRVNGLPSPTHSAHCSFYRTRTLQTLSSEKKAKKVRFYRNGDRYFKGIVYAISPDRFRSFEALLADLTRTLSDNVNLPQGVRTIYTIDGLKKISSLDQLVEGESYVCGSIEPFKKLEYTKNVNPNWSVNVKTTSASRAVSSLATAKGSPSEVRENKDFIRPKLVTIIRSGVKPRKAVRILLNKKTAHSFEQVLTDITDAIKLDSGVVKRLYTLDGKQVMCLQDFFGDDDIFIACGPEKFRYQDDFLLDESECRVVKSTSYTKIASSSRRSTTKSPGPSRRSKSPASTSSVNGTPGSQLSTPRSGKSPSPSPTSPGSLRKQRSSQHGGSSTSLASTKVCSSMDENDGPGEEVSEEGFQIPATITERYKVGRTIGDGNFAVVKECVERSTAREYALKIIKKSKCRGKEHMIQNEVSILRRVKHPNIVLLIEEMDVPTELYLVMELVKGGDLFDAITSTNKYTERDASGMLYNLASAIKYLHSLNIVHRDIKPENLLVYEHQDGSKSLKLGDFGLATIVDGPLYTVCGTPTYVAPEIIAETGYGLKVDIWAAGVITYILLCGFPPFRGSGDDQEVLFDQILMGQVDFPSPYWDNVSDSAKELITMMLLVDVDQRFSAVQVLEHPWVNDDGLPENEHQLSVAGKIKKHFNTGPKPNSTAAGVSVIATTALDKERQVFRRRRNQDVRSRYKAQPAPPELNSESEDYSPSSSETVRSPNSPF
# T4 sequence (Q6PHR2 whole entry): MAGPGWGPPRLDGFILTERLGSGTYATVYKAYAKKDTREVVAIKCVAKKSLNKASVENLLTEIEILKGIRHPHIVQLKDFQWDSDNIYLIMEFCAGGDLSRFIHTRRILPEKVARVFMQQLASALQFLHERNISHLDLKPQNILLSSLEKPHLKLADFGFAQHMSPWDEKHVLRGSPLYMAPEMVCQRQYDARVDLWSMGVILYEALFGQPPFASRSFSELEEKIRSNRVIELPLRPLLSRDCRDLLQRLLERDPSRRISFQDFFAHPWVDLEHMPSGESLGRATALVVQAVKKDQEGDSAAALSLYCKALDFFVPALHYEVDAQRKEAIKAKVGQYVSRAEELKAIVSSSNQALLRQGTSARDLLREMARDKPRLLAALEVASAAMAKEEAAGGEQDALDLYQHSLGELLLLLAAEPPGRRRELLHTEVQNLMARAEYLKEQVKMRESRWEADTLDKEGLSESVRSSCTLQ
# T15 sequence (P00533 25-1210): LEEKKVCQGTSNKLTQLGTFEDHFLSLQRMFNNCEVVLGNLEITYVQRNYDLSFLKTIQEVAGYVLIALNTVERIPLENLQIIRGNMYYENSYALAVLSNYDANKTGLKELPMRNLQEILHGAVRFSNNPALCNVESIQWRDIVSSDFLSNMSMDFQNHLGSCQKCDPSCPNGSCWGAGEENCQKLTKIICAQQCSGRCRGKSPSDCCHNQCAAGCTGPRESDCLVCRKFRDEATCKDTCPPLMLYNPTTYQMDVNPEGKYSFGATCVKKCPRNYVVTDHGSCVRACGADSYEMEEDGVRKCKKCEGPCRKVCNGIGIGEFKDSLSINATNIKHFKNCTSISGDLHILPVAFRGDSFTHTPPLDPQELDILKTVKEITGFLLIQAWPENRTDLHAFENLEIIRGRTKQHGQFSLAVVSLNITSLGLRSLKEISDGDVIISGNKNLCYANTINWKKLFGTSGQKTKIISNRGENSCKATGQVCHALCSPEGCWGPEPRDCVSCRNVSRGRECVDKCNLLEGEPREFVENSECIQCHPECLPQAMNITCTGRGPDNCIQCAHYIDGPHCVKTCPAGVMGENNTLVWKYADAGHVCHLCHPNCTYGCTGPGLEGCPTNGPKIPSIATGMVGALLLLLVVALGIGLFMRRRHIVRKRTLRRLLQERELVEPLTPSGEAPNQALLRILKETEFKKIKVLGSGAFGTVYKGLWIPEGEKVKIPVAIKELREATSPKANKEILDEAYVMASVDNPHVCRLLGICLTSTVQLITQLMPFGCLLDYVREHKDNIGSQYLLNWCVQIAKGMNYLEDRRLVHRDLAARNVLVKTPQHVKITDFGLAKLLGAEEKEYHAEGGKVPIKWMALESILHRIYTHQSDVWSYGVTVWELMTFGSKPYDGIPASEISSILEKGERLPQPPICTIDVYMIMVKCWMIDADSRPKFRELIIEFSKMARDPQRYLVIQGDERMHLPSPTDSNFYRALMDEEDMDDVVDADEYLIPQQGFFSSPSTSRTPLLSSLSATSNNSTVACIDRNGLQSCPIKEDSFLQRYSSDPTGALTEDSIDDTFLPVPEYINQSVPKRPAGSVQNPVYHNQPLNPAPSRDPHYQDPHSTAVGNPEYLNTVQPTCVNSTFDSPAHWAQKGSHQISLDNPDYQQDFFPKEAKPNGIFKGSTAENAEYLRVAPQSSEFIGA
smiles,measurement,setting,value
COc1cc(C(=O)NCC(=O)Nc2ccc3c(/C=C/c4ccccn4)n[nH]c3c2)cc(OC)c1OC [CHMFL-KIT-031],KINOMEScan profiling value,PKMYT1,91
same,KINOMEScan profiling value,CSNK1G2,100
same,EC50,KIT N822K,> 10 µM
same,EC50,"KIT N822K; read-out: EC50 pY719 auto-phosphorylation, KIT N822K transformed BaF3 cells, 2h",> 10 µM
same,EC50,"KIT N822K; read-out: EC50 pY823 auto-phosphorylation, KIT N822K transformed BaF3 cells, 2h",> 10 µM
same,KINOMEScan profiling value,LOK,96
same,KINOMEScan profiling value,ULK3,89
same,KINOMEScan profiling value,CDK11,59
same,KINOMEScan profiling value,JNK1,94
same,KINOMEScan profiling value,ULK1,92
same,KINOMEScan profiling value,DCAMKL1,100
same,KINOMEScan profiling value,BTK,100
same,KINOMEScan profiling value,MARK4,96
same,KINOMEScan profiling value,EGFR(T790M),100
same,KINOMEScan profiling value,EPHA5,100
same,KINOMEScan profiling value,PIP5K1C,71
same,selectivity over KIT wt (IC50),"KIT V559D [1]; ADP-Glo, KIT V559D vs KIT wt",about 6 fold
same,IC50,"KIT V559D [1]; purified kinase protein, ADP-Glo, 100 μM ATP",0.0282 µM and 0.028 µM
same,selectivity over KIT wt,KIT V559D [1]; summary statement,10 fold
same,KINOMEScan profiling value,EGFR,100
same,GI50,BaF3,> 10 µM
same,EC50,"KIT V559D [2]; COLO 320DM-KIT-V559D, read-out: EC50 P-CKIT Y719",0.239 µM
same,EC50,"KIT V559D [2]; COLO 320DM-KIT-V559D, read-out: EC50 P-CKIT Y823",0.147 µM
same,EC50,"KIT V559D [2]; Colo320DM cells overexpressing KIT V559D, range over the sites, read-out: EC50 phosphorylation of KIT V559D mutant (Y703, 719 and Y823 sites)",0.176 to 0.339 µM
same,selectivity compared to KIT wt at the corresponding phosphorylation sites,"KIT V559D [2]; Colo320DM cells, EC50",over 10 fold
same,EC50,"KIT V559D [2]; in cell, KIT V559D, read-out: EC50 pY703",0.176 µM
same,KINOMEScan profiling value,ITK,96
same,KINOMEScan profiling value,MET(Y1235D),100
same,EC50,KIT T670I; [5],> 10 µM
same,EC50,KIT T670I; [6],> 10 µM
same,EC50,KIT T670I; [7],1.1 µM
same,KINOMEScan profiling value,EGFR(E746-A750del),100
same,EC50,KIT V559D [3]; [5],0.151 µM
same,EC50,KIT V559D [3]; [6],0.137 µM
same,EC50,KIT V559D [3]; [7],0.118 µM
same,KINOMEScan profiling value,MLK3,100
same,KINOMEScan profiling value,MET,100
same,KINOMEScan profiling value,[4],85
same,KINOMEScan profiling value,FLT3(ITD),44
